Measurements: ChEMBL document CHEMBL2321873, “1-(4-Phenylpiperazin-1-yl)-2-(1H-pyrazol-1-yl)ethanones as novel CCR1 antagonists” (Bioorg Med Chem Lett, 2013)
pIC50: −log10 of the molar value. The source made the active and inactive calls. The calls are words filed in the database; no cut-off is given here.

Assays:
[1] = molecular target: T1, C-X-C chemokine receptor type 5 (Homo sapiens) (UniProt P32302); test: Antagonist activity at CXCR5 (unknown origin) assessed as inhibition of chemotaxis at 10 uM
T1 sequence (whole entry): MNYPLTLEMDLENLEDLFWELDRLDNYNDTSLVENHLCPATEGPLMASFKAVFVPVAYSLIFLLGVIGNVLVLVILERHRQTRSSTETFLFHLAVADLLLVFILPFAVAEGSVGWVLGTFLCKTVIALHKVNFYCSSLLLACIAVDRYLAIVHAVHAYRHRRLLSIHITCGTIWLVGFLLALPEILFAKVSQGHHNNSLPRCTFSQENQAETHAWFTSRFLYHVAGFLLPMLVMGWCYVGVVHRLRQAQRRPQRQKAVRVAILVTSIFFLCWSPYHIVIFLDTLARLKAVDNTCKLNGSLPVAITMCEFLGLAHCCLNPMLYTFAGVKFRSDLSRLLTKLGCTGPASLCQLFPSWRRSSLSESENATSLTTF

[2] = molecular target: T2, C-X-C chemokine receptor type 2 (Homo sapiens) (UniProt P25025); test: Antagonist activity at CXCR2 (unknown origin) assessed as inhibition of chemotaxis at 10 uM
T2 sequence (whole entry): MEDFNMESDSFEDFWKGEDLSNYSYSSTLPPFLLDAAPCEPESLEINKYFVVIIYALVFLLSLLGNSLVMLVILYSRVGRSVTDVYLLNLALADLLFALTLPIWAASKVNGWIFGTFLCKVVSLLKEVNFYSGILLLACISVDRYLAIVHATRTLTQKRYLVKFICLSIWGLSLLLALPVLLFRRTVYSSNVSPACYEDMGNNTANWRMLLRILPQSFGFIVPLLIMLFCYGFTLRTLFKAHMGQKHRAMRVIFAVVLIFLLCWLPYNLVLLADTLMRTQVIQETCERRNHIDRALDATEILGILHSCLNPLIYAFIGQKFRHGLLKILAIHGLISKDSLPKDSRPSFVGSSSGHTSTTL

[3] = molecular target: C-C chemokine receptor type 8 (Homo sapiens) (UniProt P51685); test: Antagonist activity at CCR8 (unknown origin) assessed as inhibition of chemotaxis at 10 uM
C-C chemokine receptor type 8 (Homo sapiens), sequence (P51685 whole entry): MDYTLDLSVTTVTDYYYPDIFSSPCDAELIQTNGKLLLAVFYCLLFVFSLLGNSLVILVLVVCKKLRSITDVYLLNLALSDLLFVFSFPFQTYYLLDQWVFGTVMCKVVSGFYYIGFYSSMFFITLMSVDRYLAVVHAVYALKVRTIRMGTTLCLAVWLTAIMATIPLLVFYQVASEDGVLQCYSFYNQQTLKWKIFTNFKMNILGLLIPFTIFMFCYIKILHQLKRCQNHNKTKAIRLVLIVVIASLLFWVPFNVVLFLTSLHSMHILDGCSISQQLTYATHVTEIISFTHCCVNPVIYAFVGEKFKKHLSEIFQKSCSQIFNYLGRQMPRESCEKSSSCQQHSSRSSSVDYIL

[4] = molecular target: T3, C-C chemokine receptor type 6 (Homo sapiens) (UniProt P51684); test: Antagonist activity at CCR6 (unknown origin) assessed as inhibition of chemotaxis at 10 uM
T3 sequence (whole entry): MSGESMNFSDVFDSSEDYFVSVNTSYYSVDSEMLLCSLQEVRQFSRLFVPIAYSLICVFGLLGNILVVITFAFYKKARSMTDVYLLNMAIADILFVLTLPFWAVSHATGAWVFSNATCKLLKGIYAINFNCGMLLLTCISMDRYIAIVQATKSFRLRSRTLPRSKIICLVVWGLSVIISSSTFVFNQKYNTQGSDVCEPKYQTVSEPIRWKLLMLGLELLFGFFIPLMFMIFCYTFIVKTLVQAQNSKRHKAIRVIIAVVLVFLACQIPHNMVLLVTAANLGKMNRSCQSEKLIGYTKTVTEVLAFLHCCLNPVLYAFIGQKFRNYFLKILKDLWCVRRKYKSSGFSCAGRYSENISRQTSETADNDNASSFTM

[5] = molecular target: T4, CX3C chemokine receptor 1 (Homo sapiens) (UniProt P49238); test: Binding affinity to CX3CR1 (unknown origin) at 10 uM by radioligand displacement assay
T4 sequence (whole entry): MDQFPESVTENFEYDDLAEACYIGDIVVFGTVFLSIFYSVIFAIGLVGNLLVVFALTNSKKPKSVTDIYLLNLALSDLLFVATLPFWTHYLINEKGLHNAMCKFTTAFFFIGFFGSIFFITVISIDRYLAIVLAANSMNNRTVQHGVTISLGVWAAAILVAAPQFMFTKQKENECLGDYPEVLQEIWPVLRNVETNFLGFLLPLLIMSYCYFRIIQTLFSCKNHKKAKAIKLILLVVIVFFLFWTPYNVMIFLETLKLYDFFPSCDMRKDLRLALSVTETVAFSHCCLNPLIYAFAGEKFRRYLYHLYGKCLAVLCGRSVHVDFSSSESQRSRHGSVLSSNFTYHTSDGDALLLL

[6] = molecular target: T2, C-X-C chemokine receptor type 2 (Homo sapiens); test: Binding affinity to CXCR2 (unknown origin) at 10 uM by radioligand displacement assay
[7] = molecular target: T5, C-X-C chemokine receptor type 1 (Homo sapiens) (UniProt P25024); test: Binding affinity to CXCR1 (unknown origin) at 10 uM by radioligand displacement assay
T5 sequence (whole entry): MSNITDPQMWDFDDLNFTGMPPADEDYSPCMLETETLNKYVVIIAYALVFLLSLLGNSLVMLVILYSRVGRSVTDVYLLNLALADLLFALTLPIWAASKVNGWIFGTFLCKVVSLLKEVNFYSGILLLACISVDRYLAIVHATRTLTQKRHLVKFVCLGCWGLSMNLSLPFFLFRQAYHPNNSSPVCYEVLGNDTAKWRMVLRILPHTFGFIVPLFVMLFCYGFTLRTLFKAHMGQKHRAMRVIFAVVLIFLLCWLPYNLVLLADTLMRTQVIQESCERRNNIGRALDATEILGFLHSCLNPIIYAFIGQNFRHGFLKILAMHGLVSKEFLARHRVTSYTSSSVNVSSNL

[8] = molecular target: T6, C-C chemokine receptor type 9 (Homo sapiens) (UniProt P51686); test: Binding affinity to CCR9 (unknown origin) at 10 uM by radioligand displacement assay
T6 sequence (whole entry): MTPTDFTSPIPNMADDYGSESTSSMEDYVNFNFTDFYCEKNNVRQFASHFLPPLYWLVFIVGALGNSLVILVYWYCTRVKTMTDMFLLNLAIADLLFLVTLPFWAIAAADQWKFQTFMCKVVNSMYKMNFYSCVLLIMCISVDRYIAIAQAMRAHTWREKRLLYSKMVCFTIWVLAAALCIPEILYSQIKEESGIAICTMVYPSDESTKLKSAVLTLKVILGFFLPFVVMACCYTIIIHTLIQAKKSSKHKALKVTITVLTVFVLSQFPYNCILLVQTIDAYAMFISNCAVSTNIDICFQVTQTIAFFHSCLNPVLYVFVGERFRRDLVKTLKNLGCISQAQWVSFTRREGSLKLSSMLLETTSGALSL

[9] = system: Salmonella typhimurium; test: Genotoxicity in Salmonella typhimurium by Ames test in absence of S9 fractions; type: toxicity, organism-based; conditions: salmonella enterica subsp. enterica serovar typhimurium
[10] = molecular target: Cytochrome P450 2D6 (Homo sapiens, UniProt P10635); test: Competitive inhibition of CYP2D6 (unknown origin); type: ADME
Cytochrome P450 2D6, sequence (P10635 whole entry): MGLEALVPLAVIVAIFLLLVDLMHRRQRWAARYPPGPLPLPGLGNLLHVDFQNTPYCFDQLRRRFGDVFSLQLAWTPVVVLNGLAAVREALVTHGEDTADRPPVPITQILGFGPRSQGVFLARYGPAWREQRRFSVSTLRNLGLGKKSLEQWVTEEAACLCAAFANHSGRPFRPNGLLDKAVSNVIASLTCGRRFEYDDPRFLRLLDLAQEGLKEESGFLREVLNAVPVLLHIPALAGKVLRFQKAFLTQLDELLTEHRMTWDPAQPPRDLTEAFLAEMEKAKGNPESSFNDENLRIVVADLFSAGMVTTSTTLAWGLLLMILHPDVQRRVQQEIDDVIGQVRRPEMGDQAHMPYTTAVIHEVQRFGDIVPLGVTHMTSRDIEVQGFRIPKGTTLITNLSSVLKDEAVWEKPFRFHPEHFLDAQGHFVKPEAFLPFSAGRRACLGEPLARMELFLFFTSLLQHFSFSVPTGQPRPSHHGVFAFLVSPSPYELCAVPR

[11] = Half life in Sprague-Dawley rat at 1 mg/kg, iv; type: ADME, organism-based; design: dose 1 mg/kg, route intravenous; conditions: in vivo
[12] = Plasma clearance in Beagle dog at 1 mg/kg, iv; type: ADME, organism-based, Canis lupus familiaris; design: dose 1 mg/kg, route intravenous
[13] = Oral bioavailability in Sprague-Dawley rat at 5 mg/kg; type: ADME, organism-based; conditions: in vivo

SMILES: COc1cc(N2CCN(C(=O)Cn3nc(C(F)(F)F)c(Cl)c3C)CC2)ccc1Cl
- inhibition [1]: inactive
- inhibition [2]: inactive
- inhibition [3]: inactive
- inhibition [4]: inactive
- Activity [5]: inactive
- Activity [6]: inactive
- Activity [7]: inactive
- Activity [8]: inactive
- Activity [9]: Non-toxic
- pIC50 [10]: < 5.00
- half-life [11]: 2.2 h
- clearance [12]: 9.6 mL/min/kg
- bioavailability [13]: 52%
